Test results taken from patent US6656914B2, “Method for treating tumors caused by APC gene mutation with anthocyanins and cyanidin” (Board of Trustees of Michigan State University, priority 2000, dated 2003).
Entries after “also recorded” stand apart in the source; their conditions may differ. Marks after values point to notes of the source that are not given here.

System: intestinal adenomas in Min mice (Apc^min/Apc^+)
Assay: Intestinal tumorigenesis in Min mice fed treatment diets for 10 weeks (adenoma number and size)
Assay type: in vivo
Settings: for Adenoma numbers in the small intestine, Distal / Adenoma numbers in the small intestine, Middle / Adenoma numbers in the small intestine, Proximal / Total Adenoma Diameter in the small intestine / Adenoma numbers in the small intestine, Total: 800 ppm anthocyanins; for Adenoma numbers in the small intestine, Distal / Adenoma numbers in the small intestine, Middle / Adenoma numbers in the small intestine, Proximal / Total Adenoma Diameter in the small intestine: 200 ppm cyanidin or 200 ppm sulindac in drinking water, or 20% cherries diet; for Adenoma numbers in the small intestine, Distal / Adenoma numbers in the small intestine, Middle / Adenoma numbers in the small intestine, Proximal / Total Adenoma Diameter in the small intestine / Adenoma numbers in the small intestine, Total / Colon Total adenoma Volume / Cecal Total adenoma Volume / Cecum adenoma Number / Colon adenoma Number / Mean Adenoma Diameter in the small intestine / Average number of solid tumors, Cecum / Average number of solid tumors, Colon / Average number of solid tumors, Total (cecum and colon): mean ± SEM; for Adenoma numbers in the small intestine, Total: 200 ppm cyanidin or 200 ppm sulindac in drinking water, or 20% freeze-dried cherries in diet; for Colon Total adenoma Volume / Cecal Total adenoma Volume / Cecum adenoma Number / Colon adenoma Number / Mean Adenoma Diameter in the small intestine / Average number of solid tumors, Cecum / Average number of solid tumors, Colon / Average number of solid tumors, Total (cecum and colon): same treatments; for Cecal Total adenoma Volume / Cecum adenoma Number / Colon adenoma Number / Mean Adenoma Diameter in the small intestine: different superscripts = significant differences (P < 0.05); for Average number of solid tumors, Cecum / Average number of solid tumors, Colon / Average number of solid tumors, Total (cecum and colon): three-dimensional raised tumors
Excerpt: Forty-eight Min mice were randomly assigned to five treatment groups at 4-5 weeks of age and fed treatment diets for 10 weeks. The treatments were:
1) Modified AIN-93G control diet, 2) The control diet +800 ppm anthocyanins in drinking water, 3) The control diet+200 ppm cyanidin in drinking water, 4) The control diet+200 ppm sulindac in drinking water, 5) Modified control diet containing 20% freeze dried pitted tart cherries. Only mean diameter, not the number of adenomas in the small intestine was reduced by sulindac, whereas diameter was increased by cherry diet (p<0.05).
All research was conducted with approval of the Michigan State University, East Lansing, Mich., All-University Committee on animal use and care. Mice were housed in MSU Laboratory, Animal Resources maintained facilities. A colony of Min mice was maintained by crossing male Min mice (Apc^min/Apc^+) with normal adult C57BL/6J female mice. Mice were housed in a temperature and humidity-controlled room (20-22° C., 70%) with a 12-h light/dark cycle. At three weeks of age, mice were bled from the dorsal pedal vein (30 μL) for genotyping analysis to identify Apc^min/Apc^+ using polymerase chain reaction (PCR) analysis and subsequent gel electrophoresis analysis. Forty-eight Min mice identified were randomly assigned to five treatment groups (7 to 11 per treatment) at 4 or 5 weeks of age and fed treatment diets for 10 weeks. The treatments were:
1) Modified AIN-93G control diet and 50 ppm ascorbic acid in drinking water (n=11)
2) The control diet+50 ppm ascorbic acid and 800 ppm anthocyanins in drinking water (n=9)
3) The control diet+50 ppm ascorbic acid and 200 ppm cyanidin in drinking water (n=7)
4) The control diet+50 ppm ascorbic acid and 200 ppm sulindac in drinking water (n=10)
5) 20% freeze-dried cherries+50 ppm ascorbic acid in drinking water (n=11).
Ingredient composition of diets is in Table 1. All diets contained 22% protein, 15% fat (soybean oil) and 5% cellulose contents. Distilled water was used for drinking water. Ascorbic acid was added to provide low pH for keeping anthocyanins and cyanidin in solution since they are stable only under pH 7. The concentration of sulindac (200 ppm) was based on the effective range found from most studies that have shown sulindac to reduce intestinal neoplasia. Cyanidin concentration (200 ppm) was matched to that of sulindac. Anthocyanins was tested at the level four times the cyanidin concentration because anthocyanins are the glycosylated cyanidin and the level (800 ppm) has equivalent amount of flavylium cation. Red tart pitted cherries (Peerson Farms, Inc., Shelby, Mich.) were frozen, freeze-dried, ground using plate grinder, and then screened to pass a 1 mm screen before they were incorporated into the diet at the expense of sucrose, cornstarch and dyetrose. One hundred grams of the experimental diet included 23 g of ground cherries to make 20% of cherries in the diet because dry matter of cherries was 75%, whereas that of AIN-93G diet was 91%.
Body weight was measured once a week until mice were sacrificed at the end of treatment period. Upon sacrifice by carbon dioxide asphyxiation, the liver was removed and frozen immediately for confirmatory PCR analysis. The entire small intestine, cecum, and colon were removed from each mouse to determine the number and size of adenomas. The tissues were separated into the following sections: proximal one-third of small intestine, middle one-third of small intestine, distal one-third of small intestine, cecum, and colon. All intestinal sections were opened longitudinally, rinsed thoroughly with water, fixed overnight in 10% neutral-buffered formalin, and then stained with 0.2% methylene blue. Tumor number and size (diameter for flat tumors or volume in the case of three-dimensional tumors) were determined in each intestinal segment on 1 mm grid transparency by direct counting with the aid of a dissecting microscope. […]

Compound	Adenoma numbers in the small intestine, Distal	Adenoma numbers in the small intestine, Middle	Adenoma numbers in the small intestine, Proximal	Total Adenoma Diameter in the small intestine [mm]	Adenoma numbers in the small intestine, Total	Colon Total adenoma Volume [mm^3]	Cecal Total adenoma Volume	Cecum adenoma Number	Colon adenoma Number	Mean Adenoma Diameter in the small intestine	Average number of solid tumors, Cecum	Average number of solid tumors, Colon	Average number of solid tumors, Total (cecum and colon)	Intestinal site of inhibited tumorigenesis (conclusion in words)	Number of cecal adenomas compared to controls (in words)	Size (volume) of adenomas in the cecum (in words)	Trend in number of adenoma in the proximal section of the small intestine (in words) (P=0.05)	Number of colonic adenomas (in words) (p<0.05)	Mean diameter (size) of adenoma in the small intestine, effect compared to control diet (in words) (p<0.05, listed as sulindac)	Number of colonic adenomas (in words) (p<0.05, listed as sulindac)
Oc1cc(O)c2cc(O)c(-c3ccc(O)c(O)c3)[o+]c2c1 [Cyanidin]	20.0 ± 7.8	15.7 ± 5.8	15.6 ± 3.5	67.4 ± 22.0	51.3 ± 15.8	3.51 ± 2.24	0.56 ± 0.96^b mm^3	0.57 ± 0.63^b	3.71 ± 0.80^ab	1.25 ± 0.11^b mm	0.00 ± 0.13	0.14 ± 0.21	0.14 ± 0.25							
CC1=C(CC(=O)O)c2cc(F)ccc2/C1=C\c1ccc([S+](C)[O-])cc1 (stereo not drawn) [Sulindac, sulindac]	10.0 ± 6.5	9.1 ± 4.9	5.6 ± 2.9	23.5 ± 18.4	24.7 ± 13.2	3.35 ± 1.88	4.00 ± 0.81^a mm^3	4.00 ± 0.53^c	5.30 ± 0.67^b	0.93 ± 0.10^a mm	0.20 ± 0.11	0.20 ± 0.17	0.40 ± 0.21	inhibits small intestinal tumorigenesis	significantly more cecal adenomas than controls; also recorded: significantly higher number of cecal adenomas; also recorded: increased the number of adenomas in cecum and colon	increased	reduced	twice as many adenomas as those of mice in cherry diet	significantly reduced the size of adenomas in small intestine	greatest number of colonic adenomas; also recorded: increased the number of adenomas in cecum and colon
